The results in this text go back to patent US20230357239A1, “PYRIDO[2,3-D]PYRIMIDIN-4-AMINES AS SOS1 INHIBITORS” (Bayer Aktiengesellschaft, priority 2020, published 2023).

Molecules are shown by their SMILES.

Chain of human SOS1 (SOS1) with human K-RasG12C (Q07889 564-1049): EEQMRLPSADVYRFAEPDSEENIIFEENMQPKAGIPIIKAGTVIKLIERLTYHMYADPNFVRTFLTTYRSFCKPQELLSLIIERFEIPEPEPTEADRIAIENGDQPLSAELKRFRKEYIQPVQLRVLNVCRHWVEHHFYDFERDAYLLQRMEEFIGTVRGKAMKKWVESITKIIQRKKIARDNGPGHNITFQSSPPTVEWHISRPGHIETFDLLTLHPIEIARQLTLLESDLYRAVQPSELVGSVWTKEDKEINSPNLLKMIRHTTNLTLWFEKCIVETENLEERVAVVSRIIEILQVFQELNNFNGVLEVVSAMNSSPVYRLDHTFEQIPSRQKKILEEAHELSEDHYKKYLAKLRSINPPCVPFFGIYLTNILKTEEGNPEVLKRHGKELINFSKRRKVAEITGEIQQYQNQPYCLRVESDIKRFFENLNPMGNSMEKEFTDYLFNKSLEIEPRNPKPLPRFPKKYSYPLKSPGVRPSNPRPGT

This assay has as its target human SOS1 (SOS1) with human K-RasG12C (Homo sapiens (Human), UniProt Q07889). In words: hK-RasG12C interaction assay with hSOS1 (HTRF). The assay is classed as binding. Conditions: GST-hK-RasG12C and His-hSOS1, 60 min incubation at 20° C, mean, read-out: K-RasG12C - SOS interaction assay IC50 - [mol/l] (mean). For orientation: TR-FRET usually uses a lanthanide donor and a delayed reading to cut background.
Regarding `CC(=O)N1CC2(C1)CN(c1cc3c(N[C@H](C)c4cccc(C(F)(F)C(C)(C)O)c4F)nc(C)nc3nc1C)C2` [Example 60, 1-{6-[4-({(1R)-1-[3-(1,1-difluoro-2-hydroxy-2-methylpropyl)-2-fluorophenyl]ethyl}amino)-2,7-dimethylpyrido[2,3-d]pyrimidin-6-yl]-2,6-diazaspiro[3.3]heptan-2-yl}ethan-1-one], the IC50 came to 3410 nM.
As to `CC(=O)N1CC2(C1)CN(c1cnc3nc(C)nc(N[C@H](C)c4cccc(C(F)(F)F)c4C)c3c1)C2` [Example 13, 1-{6-[2-methyl-4-({(1R)-1-[2-methyl-3-(trifluoromethyl)phenyl]ethyl}amino)pyrido[2,3-d]pyrimidin-6-yl]-2,6-diazaspiro[3.3]heptan-2-yl}ethan-1-one-hydrogen chloride (1/1)], the IC50 worked out at 6.35 nM.
As for `CC(=O)N1CCN(c2cnc3ncnc(N[C@H](C)c4cccc(C(F)(F)F)c4C)c3c2)CC1` [Example 10, 1-{4-[4-({(1R)-1-[2-methyl-3-(trifluoromethyl)phenyl]ethyl}amino)pyrido[2,3-d]pyrimidin-6-yl]piperazin-1-yl}ethan-1-one], the IC50 was determined as 3.55 nM.
Regarding `Cc1nc(N[C@H](C)c2cccc(C(F)F)c2F)c2cc(N3CCCS3(=O)=O)c(C)nc2n1` [Example 39, 2-[4-({(1R)-1-[3-(difluoromethyl)-2-fluorophenyl]ethyl}amino)-2,7-dimethylpyrido[2,3-d]pyrimidin-6-yl]-1 lambda^6,2-thiazolidine-1,1-dione], the IC50 is 16.2 nM.
For the compound `COc1cc2c(N[C@H](C)c3cccc(C(F)(F)F)c3C)nc(C)nc2nc1C` [Example 38, 6-methoxy-2,7-dimethyl-N-{(1R)-1-[2-methyl-3-(trifluoromethyl)phenyl]ethyl}pyrido[2,3-d]pyrimidin-4-amine], the IC50 turned out to be 46.3 nM.
Take `CC(=O)N1CCC(c2cc3c(N[C@H](C)c4cccc(C(F)F)c4F)nc(C)nc3nc2C)CC1` [Example 57, 1-{4-[4-({(1R)-1-[3-(difluoromethyl)-2-fluorophenyl]ethyl}amino)-2,7-dimethylpyrido[2,3-d]pyrimidin-6-yl]piperidin-1-yl}ethan-1-one]: the IC50 was determined as 9.81 nM.
